Laboratory results from US10105395B2, “Microvesicles (MVs) derived from adult stem cells for use in the therapeutic treatment of a tumor disease” (Fresenius Medical Care Deutschland GmbH, priority 2010, dated 2018).

Columns and labels:
Format in all cases: cell-based, human
HepG2 cells = assay: TUNEL apoptotic assay, MVs from MSCs; details: 24 and 48 hours, compared to vehicle alone; doxorubicin 100 ng/ml
Experimental: (§1) HepG2, MCF-7, SKOV-3, KS cells, HUVECs or TECs were seeded at 8,000 cells/well into 96-well plated in DMEM (Sigma) with 10% FCS and in the presence of doxorubicin (100 ng/ml, Sigma) or different concentrations of MVs (10 and 30 μg/ml) pre-treated or not with RNase. Apoptosis was assessed by TUNEL assay (ApopTag Oncor, Gaithersburg, Md., USA). After 24 or 48 hours of treatment, the cells were washed with PBS, fixed in 1% paraformaldehyde pH 7.4 for 15 minutes at 4° C., washed twice in PBS and then post-fixed in pre-cooled ethanol-acetic acid 2:1 for 5 minutes at −20° C. The samples were treated with the enzyme terminal deoxynucleotidyl transferase (TdT). The cells were then treated with heated anti-digoxigenin conjugate with fluorescein and incubated for 30 minutes at room temperature. The samples were mounted in medium containing 1 μg/ml of propidium iodide and the cells analyzed by immunofluorescence. The results are expressed as the percentage of green fluorescence emitting cells (apoptotic cells) versus red fluorescence emitting cells (total cells).

[1] = system: KS cells (Kaposi's sarcoma cells); assay: TUNEL apoptotic assay, MVs from MSCs; details: 24 and 48 hours, compared to vehicle alone; doxorubicin 100 ng/ml
Experimental: as §1

HepG2 hepatoma cell line = assay: TUNEL apoptosis assay, MVs from HLSCs; details: MVs 30 μg/ml; vincristine 100 ng/ml; 24 hours
Experimental: Apoptosis was evaluated using the terminal dUTP nickend labeling assay (ApoTag; Oncor, Gaithersburg, Md.). Cells ([…]) were cultured in 96-well plate, suspended in phosphate-buffered saline (PBS) and fixed in 1% paraformaldehyde in PBS, pH 7.4, for 15 minutes at 4° C. followed by pre-cooled ethanol/acetic acid (2:1) for 5 minutes at −20° C. Cells were treated with terminal deoxynucleotide transferase enzyme and incubated in a humidified chamber for 1 hour at 37° C. and then treated with warmed fluorescein isothiocyanate-conjugated antidigoxigenin for 30 minutes at room temperature. After washing, samples were mounted in a medium containing […] of propidium iodide and the cells were analyzed by immunofluorescence.
The ability of HLSC-derived MVs to induce apoptosis on HepG2 was evaluated. Briefly, HepG2 were seeded at a density of 8,000 cells/well into 96-well plates in DMEM with 10% FCS and apoptosis was induced by culture in the absence of FCS, by treatment with vincristine (100 ng/ml), or doxorubicin (50 ng/ml), two mitotic inhibitors used in cancer chemotherapy, or by MV treatment (30 μg/ml). […] Apoptosis was evaluated using the TUNEL assay analysis at […].

Row | Compound | apoptosis of HepG2 cells (Tunel assay) (HepG2 cells) | apoptosis of KS cells (Tunel assay) [1] | HepG2 apoptosis (TUNEL assay) (HepG2 hepatoma cell line)
1 | COc1cccc2c1C(=O)c1c(O)c3c(c(O)c1C2=O)C[C@@](O)(C(=O)CO)C[C@@H]3O[C@H]1C[C@H](N)[C@H](O)[C@H](C)O1 [doxorubicin] | apoptosis induced by doxorubicin | apoptosis induced by doxorubicin | –
2 | CC[C@]1(O)C[C@H]2CN(CCc3c([nH]c4ccccc34)[C@@](C(=O)OC)(c3cc4c(cc3OC)N(C=O)[C@H]3[C@@](O)(C(=O)OC)[C@H](OC(C)=O)[C@]5(CC)C=CCN6CC[C@]43[C@@H]65)C2)C1 [vincristine] | – | – | induced by vincristine
